This test addresses γ-secretase (Homo sapiens (Human), UniProt P49768). As to the kind of experiment: Cellular γ-secretase assay (Aβ42 secretion, AlphaLisa). In kind it is cell-based. Particulars: inhibition of Aβ42 secretion; human neuroglioma H4 cells overexpressing human APP695 Swedish double mutation; 24 hr compound incubation. The procedure:
Human neuroglioma H4 cells overexpressing human APP695 with the Swedish double mutation (K595N/M596L) were plated at 30,000 cells/well/100 μl in 96-well plates in IMDM media containing 10% FCS, 0.2 mg/l Hygromycin B and incubated at 37° C., 5% CO2.
3-4 hr post plating, compounds are a diluted in media and 50 μl is added as […] concentrate to achieve the final concentration. Compound incubation is performed for 24 hr. Final doses typically range from 4 μM down to 0.0013 μM in half-log steps resulting in an eight point dose response curve. Appropriate controls using vehicle only and reference compound were applied to this assay. The final concentration of Me2SO was 0.4%.
After incubation at 37° C., 5% CO2, the supernatant was subjected to quantification of secreted Aβ42 by the means of an AlphaLisa assay kit (Human Amyloid beta 1-42 Kit: Cat # AL203C, Perkin Elmer). 20 μl of the cell culture supernatant was transferred to an assay plate. Then 10 μl of a mixture of the AlphaLisa coupled capture antibody and the biotinylated detection antibody was added and incubated for 3 hours at room temperature while softly shaking the assay plate. After a further addition of 20 μl of the Donor beads the assay plate was incubated for 30 min at room temperature and constant shaking without exposure to direct light. The assay plate was then read on a Paradigm AlphaLisa Reader using the build-in program with excitation at 680 nm and emission at […]. The measured signals were then used to calculate IC50 values for inhibition of Aβ42 secretion by nonlinear regression fit analysis using XLfit 5.3 software (IDBS).
Consider `CNc1nc(Nc2cnc(-n3cnc(Cl)c3)c(OC)c2)nc2c1C(C)(C)CN2c1ccc(F)c(F)c1` [Example 14, N2-(6-(4-Chloro-1H-imidazol-1-yl)-5-methoxypyridin-3-yl)-7-(3,4-difluorophenyl)-N4,5,5-trimethyl-6,7-dihydro-5H-pyrrolo[2,3-d]pyrimidine-2,4-diamine], for which a half-maximal response (EC50) required 10 nM. For the compound `CNc1nc(Nc2ccc(-n3cnc(C)c3)c(F)c2)nc2c1C(C)(C)CN2c1cccc(F)c1F` [Example 43, 7-(2,3-Difluorophenyl)-N2-(3-fluoro-4-(4-methyl-1H-imidazol-1-yl)phenyl)-N4,5,5-trimethyl-6,7-dihydro-5H-pyrrolo[2,3-d]pyrimidine-2,4-diamine], the EC50 came to 5 nM. For the compound `CNc1nc(Nc2ccc(-n3cnc(C)n3)c(F)c2)nc2c1C(C)(C)CN2c1ccc(F)cc1F` [Example 24, 7-(2,4-Difluorophenyl)-N2-(3-fluoro-4-(3-methyl-1H-1,2,4-triazol-1-yl)phenyl)-N4,5,5-trimethyl-6,7-dihydro-5H-pyrrolo[2,3-d]pyrimidine-2,4-diamine], the midpoint of the response, the EC50, lay at 22 nM.

`CNc1nc(Nc2cnc(-n3cnc(C)c3)c(F)c2)nc2c1C(C)(C)CN2c1ccc(F)cc1` [Example 25, N2-(5-Fluoro-6-(4-methyl-1H-imidazol-1-yl)pyridin-3-yl)-7-(4-fluorophenyl)-N4,5,5-trimethyl-6,7-dihydro-5H-pyrrolo[2,3-d]pyrimidine-2,4-diamine] came in with an EC50 of 8 nM.

In turn, `COc1cc(Nc2nc(NCCO)c3c(n2)N(c2ccc(F)cc2)CC3(C)C)ccc1-n1cnc(C)n1` [Example 28, 2-((7-(4-Fluorophenyl)-2-((3-methoxy-4-(3-methyl-1H-1,2,4-triazol-1-yl)phenyl)amino)-5,5-dimethyl-6,7-dihydro-5H-pyrrolo[2,3-d]pyrimidin-4-yl)amino)ethanol] registered an EC50 of 8 nM. In other words, the single-digit nanomolar range.

`CNc1nc(Nc2cnc(-n3cnc(C)c3)c(OC)c2)nc2c1C(C)(C)CN2C12CC(C(F)(F)F)(C1)C2` [Example 22, N2-(5-Methoxy-6-(4-methyl-1H-imidazol-1-yl)pyridin-3-yl)-N4,5,5-trimethyl-7-(3-(trifluoromethyl)bicyclo[1.1.1]pentan-1-yl)-6,7-dihydro-5H-pyrrolo[2,3-d]pyrimidine-2,4-diamine] displayed a 50% effective concentration (EC50) of 30 nM.

`CNc1nc(Nc2cnc(-n3cnc(C)c3)c(F)c2)nc2c1C(C)(C)CCN2c1ccc(F)cc1` [Example 36, N2-(5-Fluoro-6-(4-methyl-1H-imidazol-1-yl)pyridin-3-yl)-8-(4-fluorophenyl)-N4,5,5-trimethyl-5,6,7,8-tetrahydropyrido[2,3-d]pyrimidine-2,4-diamine] displayed an EC50 of 14 nM.

The compound `CNc1nc(Nc2ccc(-n3cnc(C)n3)c(OC)c2)nc2c1C(C)(C)CN2c1ccc(F)cc1F` [Example 19, 7-(2,4-Difluorophenyl)-N2-(3-methoxy-4-(3-methyl-1H-1,2,4-triazol-1-yl)phenyl)-N4,5,5-trimethyl-6,7-dihydro-5H-pyrrolo[2,3-d]pyrimidine-2,4-diamine] yielded an EC50 of 8 nM. This EC50 is about 1.8-fold lower than that of the compound before.

For the compound `CNc1nc(Nc2cnc(-n3cnc(C)c3)c(OC)c2)nc2c1C(C)(C)CN2c1ccc(F)cc1` [Example 7, 7-(4-Fluorophenyl)-N2-(5-methoxy-6-(4-methyl-1H-imidazol-1-yl)pyridin-3-yl)-N4,5,5-trimethyl-6,7-dihydro-5H-pyrrolo[2,3-d]pyrimidine-2,4-diamine], the response was half-maximal at 5 nM (EC50). With `CNc1nc(Nc2ccc(-n3ncnc3C)c(F)c2)nc2c1C(C)(C)CN2c1ccc(F)cc1` [Example 5, N2-(3-Fluoro-4-(5-methyl-1H-1,2,4-triazol-1-yl)phenyl)-7-(4-fluorophenyl)-N4,5,5-trimethyl-6,7-dihydro-5H-pyrrolo[2,3-d]pyrimidine-2,4-diamine], a half-maximal response (EC50) required 22 nM.

As for `CNc1nc(Nc2ccc(-n3cnc(C)n3)c(OC)c2)nc2c1C(C)(C)CN2C1CC(F)(F)C1` [Example 17, 7-(3,3-Difluorocyclobutyl)-N2-(3-methoxy-4-(3-methyl-1H-1,2,4-triazol-1-yl)phenyl)-N4,5,5-trimethyl-6,7-dihydro-5H-pyrrolo[2,3-d]pyrimidine-2,4-diamine], it took 19 nM to reach a half-maximal effect (EC50). This EC50 and that of the compound before are within 1.5-fold of each other. With `CNc1nc(Nc2cnc(-n3cnc(C)c3)c(OC)c2)nc2c1C(C)(C)CN2c1cccc(F)c1F` [Example 44, 7-(2,3-Difluorophenyl)-N2-(5-methoxy-6-(4-methyl-1H-imidazol-1-yl)pyridin-3-yl)-N4,5,5-trimethyl-6,7-dihydro-5H-pyrrolo[2,3-d]pyrimidine-2,4-diamine], a half-maximal response (EC50) required 5 nM. Compared with the last compound, the EC50 is about 3.8-fold lower. The result for `CNc1nc(Nc2ccc(-c3nnc(C)o3)cc2)nc2c1C(C)(C)CN2c1ccc(F)cc1` [Example 47, 7-(4-Fluorophenyl)-N4,5,5-trimethyl-N2-(4-(5-methyl-1,3,4-oxadiazol-2-yl)phenyl)-6,7-dihydro-5H-pyrrolo[2,3-d]pyrimidine-2,4-diamine] reads 55 nM; that for `CNc1nc(Nc2cnc(-n3cnc(C)c3)c(F)c2)nc2c1C(C)(C)CN2c1cccc(F)c1F` [Example 42, 7-(2,3-Difluorophenyl)-N2-(5-fluoro-6-(4-methyl-1H-imidazol-1-yl)pyridin-3-yl)-N4,5,5-trimethyl-6,7-dihydro-5H-pyrrolo[2,3-d]pyrimidine-2,4-diamine], 8 nM; that for `CNc1nc(Nc2ccc(-n3cnc(C)c3)c(F)c2)nc2c1CCN2c1ccc(F)cc1` [Example 38, N2-(3-Fluoro-4-(4-methyl-1H-imidazol-1-yl)phenyl)-7-(4-fluorophenyl)-N4-methyl-6,7-dihydro-5H-pyrrolo[2,3-d]pyrimidine-2,4-diamine], 6 nM. As for `CNc1nc(Nc2ccc(-n3cnc(C)n3)c(OC)c2)nc2c1C(C)(C)CN2c1ccc(F)cc1` [Example 1, 7-(4-Fluorophenyl)-N2-(3-methoxy-4-(3-methyl-1H-1,2,4-triazol-1-yl)phenyl)-N4,5,5-trimethyl-6,7-dihydro-5H-pyrrolo[2,3-d]pyrimidine-2,4-diamine], it took 5 nM to reach a half-maximal effect (EC50). Compound `CNc1nc(Nc2ccc(-n3cnc(C)n3)c(OC)c2)nc2c1C(C)CN2c1ccc(F)cc1` (stereo not drawn) [Example 39, 7-(4-Fluorophenyl)-N2-(3-methoxy-4-(3-methyl-1H-1,2,4-triazol-1-yl)phenyl)-N4,5-dimethyl-6,7-dihydro-5H-pyrrolo[2,3-d]pyrimidine-2,4-diamine] yielded an EC50 of 6 nM. `CNc1nc(Nc2ccc(-n3cnc(C)n3)c(OC)c2)nc2c1C(C)(C)CN2C12CC(C(F)(F)F)(C1)C2` [Example 21, N2-(3-Methoxy-4-(3-methyl-1H-1,2,4-triazol-1-yl)phenyl)-N4,5,5-trimethyl-7-(3-(trifluoromethyl)bicyclo[1.1.1]pentan-1-yl)-6,7-dihydro-5H-pyrrolo[2,3-d]pyrimidine-2,4-diamine]: the EC50 amounted to 72 nM. This EC50 lies about 12-fold higher than the previous one.

Regarding `CNc1nc(Nc2ccc(-n3cnc(C)c3)c(F)c2)nc2c1C(C)(C)CN2c1ccc(F)cc1` [Example 34, N2-(3-Fluoro-4-(4-methyl-1H-imidazol-1-yl)phenyl)-7-(4-fluorophenyl)-N4,5,5-trimethyl-6,7-dihydro-5H-pyrrolo[2,3-d]pyrimidine-2,4-diamine], a half-maximal effect (EC50) was put at 8 nM. `CNc1nc(Nc2ccc(-n3cnc(C)n3)c(OC(F)F)c2)nc2c1C(C)(C)CN2c1ccc(F)cc1` [Example 2, N2-(3-(Difluoromethoxy)-4-(3-methyl-1H-1,2,4-triazol-1-yl)phenyl)-7-(4-fluorophenyl)-N4,5,5-trimethyl-6,7-dihydro-5H-pyrrolo[2,3-d]pyrimidine-2,4-diamine] showed an EC50 of 8 nM. The figure for `CNc1nc(Nc2ccc(-n3cnc(C)c3)c(F)c2)nc2c1C(C)(C)CN2c1ccc(F)cc1Cl` [Example 45, 7-(2-Chloro-4-fluorophenyl)-N2-(3-fluoro-4-(4-methyl-1H-imidazol-1-yl)phenyl)-N4,5,5-trimethyl-6,7-dihydro-5H-pyrrolo[2,3-d]pyrimidine-2,4-diamine] is 4 nM; for `CNc1nc(Nc2ccc(-n3cnc(C)n3)c(F)c2)nc2c1C(C)(C)CN2c1ccc(F)cc1` [Example 3, N2-(3-Fluoro-4-(3-methyl-1H-1,2,4-triazol-1-yl)phenyl)-7-(4-fluorophenyl)-N4,5,5-trimethyl-6,7-dihydro-5H-pyrrolo[2,3-d]pyrimidine-2,4-diamine] it is 16 nM. For the compound `CNc1nc(Nc2ccc(-n3cnc(C)c3)c(F)c2)nc2c1[C@H](C)CN2c1ccc(F)cc1` (single isomer, unassigned) [Example 46p, (S)- or (R)—N2-(3-Fluoro-4-(4-methyl-1H-imidazol-1-yl)phenyl)-7-(4-fluorophenyl)-N4,5-dimethyl-6,7-dihydro-5H-pyrrolo[2,3-d]pyrimidine-2,4-diamine], the EC50 stood at 5 nM. `CNc1nc(Nc2cnc(-n3cnc(Cl)c3)c(OC)c2)nc2c1C(C)(C)CN2c1ccc(F)cc1` [Example 6, N2-(6-(4-Chloro-1H-imidazol-1-yl)-5-methoxypyridin-3-yl)-7-(4-fluorophenyl)-N4,5,5-trimethyl-6,7-dihydro-5H-pyrrolo[2,3-d]pyrimidine-2,4-diamine] registered an EC50 of 9 nM.

The record behind these values is patent US10669276B2, “Fused pyrimidine derivatives” (Hoffmann-La Roche Inc., priority 2016, dated 2020).
